In patent US9198886B2, “Use of 2,5-dihydroxybenzene for the treatment of ocular diseases” (priority 2006, dated 2015):

Key:
[1] = tested on: intestinal inflammatory disease induced by dextran sulfate sodium; assay: DSS-induced intestinal inflammatory disease in mice; assay type: in vivo, mice of strain C57BL/6J-664
Procedure: (§1) The mice were subject to two 7-day cycles of exposure to dextran sulfate sodium (DSS) (from day 1 to 7 and from day 14 to 21) in the drinking water separated by 7 days in which regular water was provided (from 7 to 14). One group was treated with vehicle (0.9% NaCl), another with Solu-Medrol (10 mg/kg/day i.m.), and the other two groups with potassium 2,5-diacetoxybenzene sulfonate (DABS), one of them with 100 mg/kg/day i.p. and the other with 125 mg/kg/day, orally (p.o.). The body weight was normalized on day 0. Data are expressed as the mean+SD of the percentage of the basal weight (day 0) of 10 mice per group.
as §1, with “(p.o.)” for “(p.o.). The body weight was normalized on day 0.”, “mean±SD” for “mean+SD”, “clinical score” for “percentage”, “disease continuously obtained from” for “basal weight (day 0) of”, “per each” for “per”
The induction of the intestinal inflammatory disease described below is a representative model for the evaluation of therapeutic strategies to treat Crohn's disease and ulcerative colitis. 7-8 week old female mice of strain C57BL/6J-664 were used. The intestinal inflammatory disease (HD) was induced by feeding the mice with 3% dextran sulfate sodium (DSS; MW 40,000) dissolved in drinking water in 2 cycles. Each cycle consisted of 7 days with 3% DSS in the drinking water separated by 7 days with regular water. A daily clinical evaluation of the animals was performed in which the body weight, the consistency of the faeces and the presence of blood in the faeces were determined. Thus, the validated score of the clinical activity of the disease was evaluated with a 0 to 6 scale, considering the following parameters: consistency of the faeces, presence or absence of fecal blood and loss of weight.
At the end of the first cycle of exposure to DSS, the mice were divided into the following treatment groups: a first group was administered intraperitoneal (i.p) injections of vehicle (0.9% NaCl). Another group received intramuscular injections of Solu-Medrol, a standard IID treatment, at a dose of 10 mg/kg/day. A third group was administered i.p. injections of potassium 2,5-diacetroxybenzene sulfonate (DABS, 100 mg/kg/day). The last group was treated orally with 125 mg/kg day of DABS.

[2] = tested on: Leishmania major; assay: Leishmania major infection of the mouse paw pad; assay type: in vivo, BALB/c female mice
Text: This model is based in the massive inoculation of Leishmania promatigotes in the mouse paw pad. Under these conditions, the parasite induces a progressive inflammation correlated with the multiplication of parasites at the site of inoculation. BALB/c strain female mice that developed severe and uncontrolled injuries were used (Foote S J, Handman E. Brief Funct Genomic Proteomic, 2005). This model has been used in pharmacology to monitor the therapeutic capacity of new leishmanicide compounds and the preventive capacity of potential vaccines against leishmaniasis ((Nelson K G et al. Antimicrob Agents Chemother. 2006).
The animals were inoculated with 5×10^6 of L. major promastigotes (strain Hervás) in 50 μL of PBS into the plantar pad of the right back paw. As negative control of the infection, a group of mice inoculated with 50 μL of PBS was used. The sizes of the lesions were measured every 7 days until the animals were sacrificed (week 9) using a Vernier caliper. The thickness of the right back paw (infected) and the left back paw (uninfected) of all the animals was measured at the base of the fifth toe. The progression of the inflammation is represented as the difference in thickness between the infected and the non-infected paws. […]

[3] = molecular target: fibroblast growth factor-1 (FGF-1) (Homo sapiens, UniProt P05230); assay: FGF-1 induced mitogenesis in quiescent Balb/c 3T3 fibroblasts; assay type: cell-based; conditions: potassium salts, except 2-acetoxy-5-hydroxybenzene sulfonate as calcium salt
Sequence of fibroblast growth factor-1 (FGF-1) (P05230 whole entry, species assumed): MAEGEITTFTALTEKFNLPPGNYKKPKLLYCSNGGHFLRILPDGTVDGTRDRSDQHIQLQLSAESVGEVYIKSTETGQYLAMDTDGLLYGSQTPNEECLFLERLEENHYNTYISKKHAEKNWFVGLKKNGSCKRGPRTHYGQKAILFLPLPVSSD
Procedure: The evaluated compounds were used in the form of potassium salt, except in the first case in which calcium salt was used. The experiments were carried out as described in Fernández-Tornero C et al. J Biol Chem, 2003.

[4] = tested on: endometriotic lesions; assay: Rat model of endometriosis, histology of autologous implant; assay type: in vivo, Sprague-Dawley rats; conditions: 200 mg/kg/day i.p., two weeks
Text: In these rats, the epithelial layer (a) and the stroma (b) are clearly observed in the endometrium, while longitudinal (c) and circular (d) normal layers of smooth muscle cells are observed in the myometrium adjacent to the peritoneal tissue (e). […] The neovascularization observed in the uterine tissue implanted in control rats (shown with arrows in A) is not present in rats treated with 2,5-dihydroxybenzenesulfonic (DHBS) (C). • D) Magnification of the area marked with a box in C.
Sprague-Dawley rats were anesthetized as described (Fernández-Tornero C et al. J Biol Chem, 2003). Endometriotic lesions were induced using a known rat model of endometriosis (Vernon M W and Wilson E A. Fertil Steril, 1985). In summary, 2 mm fragments of the cervix were autologously implanted between branches in the mesenteric vascular tree. The rats were treated or not treated (control) daily during two weeks after the surgery with 2,5-dihydroxybenzene sulfonic acid (DHBS) (200 mg/kg; i.p.). Then, the rats were sacrificed and the endometrial ectopic tissue was removed to make its histological examination. […] This example illustrates the therapeutic activity of 2,5-dihydroxybenzene sulfonate (DHBS) in the treatment of endometriosis.

Row | Compound | disease clinical score ([1]; 100 mg/kg/day i.p.) | disease clinical score ([1]; 125 mg/kg/day orally) | loss of body weight produced by two cycles of DSS ([1]; DABS 100 mg/kg/day i.p. or 125 mg/kg/day p.o., Solu-Medrol 10 mg/kg/day i.m., vs vehicle) | efficacy compared with standard treatment Solu-Medrol ([1]; body weight and clinical score, Solu-Medrol 10 mg/kg/day i.m.) | size of the lesion (paw thickness difference) ([2]; 200 mg/kg/day i.p. from day 0 to week 9, effect from the third week post-infection) | FGF-1 induced mitogenesis [3] | histology of implanted tissue (hematoxylin-eosin) [4] | neovascularization of implanted uterine tissue [4] | increase of paw thickness (infected vs non-infected paw) ([2]; potassium salt 200 mg/kg i.p. daily for 14 days from third week after infection, effect from the eighth week)
1 | CC(=O)Oc1ccc(OC(C)=O)c(S(=O)(=O)[O-])c1.[K+] [DABS, potassium 2,5-diacetoxybenzene sulfonate] | reduced | reduced | reduced | not lower (in some points it is higher) | statistically significant reduction in the size of the lesion | Inhibition of FGF-1 induced mitogenesis was observed | – | – | –
2 | O=S(=O)(O)c1cc(O)ccc1O [DHBS, 2,5-dihydroxybenzene sulfonic acid] | – | – | – | – | – | Inhibition of the mitogenesis | athrophy of the cervix tissue implanted | not present | significant reduction in the increase of paw thickness
